Read-outs that look alike come from different tables or passages of the source.
Columns and labels:
[1] = system: MC38 cells; assay: Synergism proof of principle II: IL-12 mRNA by qPCR; assay type: cell-based, murine; conditions: cells transduced with AAV8-hSTINGmut plus AAV8-ISREx4-IL12miR122T
Description: To this end, MC38 cells received 8 Gy or 0 Gy as described above and then were co-transduced with AAV8-hSTINGmut (1×10^5 viral genomes/cell) and AAV8-ISREx4-IL12miR122T (0.5×10^5 viral genomes/cell) as described above. For cell transduction, 8.5×10^9 viral genomes of AAV8-hSTINGmut and 4.25×10^9 viral genomes of AAV8-scIL12-miR122T, from known concentration stock solutions, were resuspended, each one, in 50 μl RPMI 2% FBS. The resuspended viral particles were then added to the wells where the cells were seeded. […] The IL-12 mRNA was determined by qPCR as described above (example 3) and expression levels were quantified in reference to non-transduced, non-irradiated cells treated with vehicle.

[2] = system: native non-transduced MC38 cells; assay: Synergism proof of principle IV: IFN-β protein by ELISA; assay type: cell-based, murine
Description: In addition to the previous experiments, the objective of the fourth experiment was to further investigate the observed synergism between the canonical and non-canonical STING.
To this end, native non-transduced MC38 cells received 0 Gy, 2 Gy or 8 Gy as described above. […] The IFN-p protein levels were determined by ELISA as described above.

[3] = target: T1, hSTINGmut (Homo sapiens, UniProt Q86WV6, G230I/H232R/Q266I/S162A); assay: Time-course expression of STING-derived cytokines upon DMXAA treatment (qPCR); assay type: cell-based; conditions: MC38 and Hep2G cells encoding hSTINGmut; 50 μg/mL DMXAA; any given timepoint
T1 construct: expressed in transfected cells
T1 sequence (Q86WV6 whole entry S162A/G230I/H232R/Q266I): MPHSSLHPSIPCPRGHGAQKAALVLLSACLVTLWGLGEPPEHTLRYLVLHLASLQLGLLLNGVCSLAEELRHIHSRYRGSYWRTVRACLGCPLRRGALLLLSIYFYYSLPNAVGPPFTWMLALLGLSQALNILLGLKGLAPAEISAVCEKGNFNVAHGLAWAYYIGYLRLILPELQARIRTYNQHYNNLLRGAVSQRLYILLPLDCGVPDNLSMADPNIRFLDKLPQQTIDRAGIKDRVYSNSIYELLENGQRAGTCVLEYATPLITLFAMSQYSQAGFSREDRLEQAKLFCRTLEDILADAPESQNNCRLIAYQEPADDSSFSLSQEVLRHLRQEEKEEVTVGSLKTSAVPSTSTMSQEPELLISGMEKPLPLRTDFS
Description: The objective of this experiment was to examine the time-course of STING-derived cytokine expression upon DMXAA treatment. As a readout, the expression of STING-derived cytokines was measured by qPCR.
To this end, stable cell lines of MC38 and Hep2G cells encoding hSTINGmut have been obtained as described above. […] Cells were harvested and prepared for qPCR measurements as described above.

[4] = system: MC38 cells; assay: Synergism proof of principle I: IFN-β mRNA by qPCR; assay type: cell-based, murine; conditions: 8 Gy + DMXAA 50 μg/mL, without exogenic hSTINGmut
Description: To this end, MC38 cells received 8 Gy or 0 Gy as described above (example 7). Cells were seeded thereafter at 750 cells/mm^2 density and were then either mock-transduced or transduced with AAV8-hSTINGmut (1×10^5 viral genomes/cell). For cell transduction 8.5×10^9 viral genomes of AAV8-hSTINGmut from known concentration stock solutions, were resuspended in 50 μl RPMI 2% FBS. The resuspended viral particles were then added to the wells where the cells were seeded.

[5] = target: T1, hSTINGmut; assay: DMXAA mediated expression of STING-derived cytokines (qPCR); assay type: cell-based; conditions: hSTINGmut-transduced MC38 and Hep2G cells; 50 μg/mL DMXAA, 3 h or 6 h
Description: (§1) As a readout, the expression of STING-derived cytokines was measured by qPCR.
(§2) To this end, MC38 and Hep2G cells have been transduced with lentiviruses encoding luciferase, hSTINGwt, hSTINGmut to obtain stable cell lines as described above or were not transduced with any lentivirus (no vector). Respective cells were seeded in 24-well plates at a density of 750 cells/mm^2 in growth medium. […] Cells were harvested and prepared for qPCR measurements as described above. The expression of the cytokines IFN-β, TNF-α, IL-6, CXCL9 and CXCL10 were measured for either experimental group and expression levels relative to controls (no vector) were quantified.

[6] = target: T2, hSTINGwt (Homo sapiens, UniProt Q86WV6, H232R); assay: as above; assay type: cell-based; conditions: other groups (hSTINGwt, luciferase, no vector); 50 μg/mL DMXAA
T2 construct: expressed in transfected cells
T2 sequence (Q86WV6 whole entry H232R): as the sequence (Q86WV6 whole entry S162A/G230I/H232R/Q266I) above, with A162S, I230G, I266Q counted along it
Description: as §1, §2

[7] = target: human STING (Homo sapiens, UniProt Q86WV6); conditions: cited from earlier work
human STING, sequence (Q86WV6 whole entry H232R): as the sequence (Q86WV6 whole entry S162A/G230I/H232R/Q266I) above, with A162S, I230G, I266Q counted along it

[8] = system: IFN-β protein levels in the serum
Description: C57 wild type mice, aged 6 to 10 weeks, were injected intravenously with an AAV8 vector encoding either hSTINGmut (AAV8-hSTINGmut, 1×10^11 viral genomes) or as a control GFP (AAV8-GFP, 1.5×10^11 viral genomes).

[9] = human, in vivo; cited from earlier work
[10] = target: hSTING[R]-S162A/G230I/Q266I (Homo sapiens, UniProt Q86WV6, G230I/H232R/Q266I/S162A); conditions: cited from earlier work
hSTING[R]-S162A/G230I/Q266I, sequence (Q86WV6 whole entry S162A/G230I/H232R/Q266I): as the sequence (Q86WV6 whole entry S162A/G230I/H232R/Q266I) above

[11] = system: HEK293 cells; assay: Synergism proof of principle III: IFN-β and IL-12 mRNA by qPCR; assay type: cell-based, human; conditions: for IFN-β expression levels: hSTINGmut expressing cells
From the text: To this end, HEK293 cells received 8 Gy or 0 Gy as described above for MC38 cells and then were co-transduced with AAV8-hSTINGmut (1×10^5 viral genomes), AAV8-ISREx4-IL12miR122T (1×10^5 viral genomes) and/or AAV-GFP (1×10^5 viral genomes) as indicated in the figure.

[12] = system: MC38 tumors; assay: Synergism of DMXAA and radiotherapy in a humanized mouse model in vivo, cytokine ELISA; set-up: species or system STING deficient C57 mice (STING KO); conditions: 6 h after DMXAA 20 mg/kg, irradiated tumors
[13] = target: T3, murine STING (Mus musculus, UniProt Q3TBT3); conditions: cited from earlier work
T3 sequence (Q3TBT3 1-378): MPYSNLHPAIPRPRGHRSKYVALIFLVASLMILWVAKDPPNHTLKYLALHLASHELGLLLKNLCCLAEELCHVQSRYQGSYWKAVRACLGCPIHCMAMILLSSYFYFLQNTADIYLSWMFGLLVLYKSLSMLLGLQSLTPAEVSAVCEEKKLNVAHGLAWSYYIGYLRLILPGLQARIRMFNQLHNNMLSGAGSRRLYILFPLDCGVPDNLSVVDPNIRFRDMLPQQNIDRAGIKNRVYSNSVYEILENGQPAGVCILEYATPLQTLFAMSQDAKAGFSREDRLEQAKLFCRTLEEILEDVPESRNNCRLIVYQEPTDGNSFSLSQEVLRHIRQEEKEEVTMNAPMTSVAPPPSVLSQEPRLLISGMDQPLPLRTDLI

## Cc1ccc2c(=O)c3cccc(CC(=O)O)c3oc2c1C [DMXAA, 5,6-Dimethylxanthenone-4-acetic acid]
[1]; 8 Gy
  IL-12 mRNA levels: strong elevation
[1]; non-irradiated
  IL-12 mRNA levels: slight elevation
[2]; 8 Gy plus DMXAA (different doses), 24 h or 48 h
  IFN-β production: exceeding the sum of those obtained with radiation alone and DMXAA alone
[2]; 8 Gy, DMXAA 50 μg/mL 24 h later, collected after another 24 h
  IFN-β production after a single dose of radiation: enhanced
[3]
  expression of STING-derived cytokines over time: increase in expression levels
[4]
  IFN-β mRNA expression: increase in IFN-β expression
[5]
  expression of the cytokines IFN-β, TNF-α, IL-6, CXCL9 and CXCL10: elevated
[6]
  expression of the cytokines IFN-β, TNF-α, IL-6, CXCL9 and CXCL10: no significant alteration
[7]
  activation of human STING: unable to activate
[8]; 20 mg DMXAA/kg bodyweight i.p., after a first injection
  serum IFN-β levels in AAV8-GFP transduced control animals: elevation
[8]; 20 mg DMXAA/kg, AAV8-hSTINGmut and AAV8-GFP mice, systemic STING stimulation
  toxicity and mortality: high toxicity and mortality
[8]; 5 or 10 mg DMXAA/kg bodyweight i.p.
  serum IFN-β levels in AAV8-hSTINGmut transduced mice: very low levels
[8]; 5 or 10 mg DMXAA/kg, AAV8-hSTINGmut transduced mice
  toxicity and mortality: neither cause significant toxicity nor mortality
[9]
  efficacy in clinical trials: lack of efficacy
  tolerability in clinical trials: well tolerated and only displayed minor side effects
[10]
  activation of hSTING[R]-S162A/G230I/Q266I: highly activated
[11]; ISREx4-IL12miR122T expressing cells, radiation plus further DMXAA treatment
  IL-12 expression levels: significant increase
[11]; DMXAA 50 μg/mL
  IFN-β expression levels: upregulated
[11]; DMXAA plus additional irradiation 8 Gy
  IFN-β expression levels: significantly increased
[12]
  intratumor levels of IL-12: increased significantly

## O=C(O)Cc1cccc2c(=O)cc(-c3ccccc3)oc12 [FAA, flavone-8-acetic acid]
[13]
  activation of murine STING: may also be activated
